In patent US20260225997A1, “IONIZABLE AMINE LIPIDS” (Intellia Therapeutics, Inc., priority 2018, published 2026):
Where two headings read alike, the source gives them in different places.

How the values were obtained:
[1] = pKa measurement of unformulated amine lipid (fluorescence, method of Jayaraman et al.); format: physicochemical; details: 100 μM in 0.1 M phosphate buffer pH 4.5-9.0
Protocol: The pKa of each amine lipid was determined according to the method in Jayaraman, et al. (Angewandte Chemie, 2012) with the following adaptations. […] Lipid was diluted to 100 μM in 0.1 M phosphate buffer (Boston Bioproducts) where the pH ranged from 4.5-9.0. Fluorescence intensity was measured using excitation and emission wavelengths of 321 nm and 448 nm.

[2] = RNA encapsulation efficiency of LNP (Ribogreen fluorescence assay); format: physicochemical; details: N:P 6.0
Summary of the method: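 LNP samples diluted in 1× TE buffer with 0.2% Triton X-100 (total RNA) or without it (free RNA), stained with RiboGreen for ~10 min at room temperature in the dark, read at ex 488/em 525 nm against RNA standard curves. Encapsulation efficiency = (Total RNA − Free RNA)/Total RNA.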

TTR [3] = assay: TTR editing in mouse liver by NGS after i.v. LNP delivery of Cas9 mRNA and sgRNA; format: in vivo; details: CD-1 female mice
Summary of the method: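 Cas9 mRNA and chemically modified sgRNA were co-formulated in LNPs made of an ionizable amine lipid, DSPC, cholesterol and PEG-2k-DMG at a 6.0 N:P ratio. CD-1 female mice aged 6-10 weeks received tail-vein injections of 0.2 mL. Liver genomic DNA was then amplified around the target site and sequenced on an Illumina MiSeq, with editing calculated as indel-containing reads over total reads.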

TTR [4] = assay: Transthyretin (TTR) ELISA analysis of mouse serum after LNP dosing; format: in vivo
Summary of the method: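 Female CD-1 mice aged 6-10 weeks were grouped by body weight and given LNPs by lateral tail vein injection (0.2 mL per animal, about 10 mL per kilogram). Mice were bled by cardiac puncture under isoflurane into serum separator tubes. Serum was diluted 10,000-fold for the 0.1 mpk dose, and total TTR was quantified with a Mouse Prealbumin (Transthyretin) ELISA Kit following the kit directions.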

[5] = Example 58: 0.1 mpk i.v., 6 days post-dose, G282 1:1
[6] = Example 62: 0.03 mpk i.v., 7 days post-dose, G282 1:2
[7] = Example 62: 0.1 mpk i.v., 7 days post-dose, G282 1:2

pKa [1]: 6.21
Encapsulation (%) ([2]; Table 14, Example 58: LNP, G282 (TTR) 1:1 w/w): 91%
Encapsulation (%) ([2]; Table 22, Example 62: LNP, G282 (TTR), sgRNA:Cas9 mRNA 1:2 w/w): 94%
Structure (SMILES): CCCCCCCCOC(CCCCCCCN(CCO)CCCCCCCC(=O)OC(CC)CCCCCCCC)OCCCCCCCC (stereo not drawn) [Compound 17, undecan-3-yl 8-((8,8-bis(octyloxy)octyl)(2-hydroxyethyl)amino)octanoate]
Editing Mean % Indel (TTR [3]; [5]): 40.8%
Editing Mean % Indel (TTR [3]; [6]): 4.0%
Editing Mean % Indel (TTR [3]; [7]): 45.9%
Serum TTR (TTR [4]; [5]): 479 µg/mL
Serum TTR (TTR [4]; [6]): 495 µg/mL
Serum TTR (TTR [4]; [7]): 304 µg/mL
response vs control in vivo at 0.1 mg/kg (TTR [4]; Mus musculus, iv, 144 h, Example 58: 0.1 mpk i.v., 6 days post-dose, G282 1:1, read-out: Serum TTR % TSS): 48%
response vs control in vivo at 0.03 mg/kg (TTR [4]; Mus musculus, iv, 168 h, Example 62: 0.03 mpk i.v., 7 days post-dose, G282 1:2, read-out: Serum TTR % TSS): 78%
response vs control in vivo at 0.1 mg/kg (TTR [4]; Mus musculus, iv, 168 h, Example 62: 0.1 mpk i.v., 7 days post-dose, G282 1:2, read-out: Serum TTR % TSS): 48%
